Reference: US20060057236A1, “Process for producing an extract of ivy leaves” (priority 2003, published 2006)

Key:
[1] = test system: β-adrenergic receptors; experiment: inhibition of internalization of β-adrenergic receptors (receptor/ligand complex) into the cell; type: cell-based; settings: studies carried out by the applicant; result in words
[2] = test system: β-adrenergic receptor; experiment: direct action on the β-adrenergic receptor; settings: studies carried out by the applicant; result in words

SMILES	inhibition of the process of internalizing β-adrenergic receptors [1]	direct attack on the β-adrenergic receptor [2]
C[C@@H]1O[C@@H](O[C@H]2[C@H](O[C@H]3CC[C@@]4(C)[C@@H](CC[C@]5(C)[C@@H]4CC=C4[C@@H]6CC(C)(C)CC[C@]6(C(=O)O[C@@H]6O[C@H](CO[C@@H]7O[C@H](CO)[C@@H](O[C@@H]8O[C@@H](C)[C@H](O)[C@@H](O)[C@H]8O)[C@H](O)[C@H]7O)[C@@H](O)[C@H](O)[C@H]6O)CC[C@]45C)[C@]3(C)CO)OC[C@H](O)[C@@H]2O)[C@H](O)[C@H](O)[C@H]1O [hederacoside C]	unable to inhibit the process of internalization	
CC1(C)CC[C@]2(C(=O)O)CC[C@]3(C)C(=CC[C@@H]4[C@@]5(C)CC[C@H](O)[C@@](C)(CO)[C@@H]5CC[C@]43C)[C@@H]2C1 [hederagenin]	unable to inhibit the process of internalization	
C[C@@H]1O[C@@H](O[C@H]2[C@H](O[C@H]3CC[C@@]4(C)[C@@H](CC[C@]5(C)[C@@H]4CC=C4[C@@H]6CC(C)(C)CC[C@]6(C(=O)O)CC[C@]45C)[C@]3(C)CO)OC[C@H](O)[C@@H]2O)[C@H](O)[C@H](O)[C@H]1O [α-hederin]	inhibits the process of internalizing β-adrenergic receptors in a specific manner	does not attack the β-adrenergic receptor directly
